Data: US20190191695A1, “DISSOLVENT COMPOSITION, STABLE UNDER COLD CONDITIONS” (OLEON NV, priority 2016, published 2019)

Columns and labels:
Format in all cases: physicochemical
[1] = Viscosity (viscometer/densimeter SVM 3000)
Procedure: (§1) The equipment used is: • 15 mL flasks • A refrigerated cabinet at 0° C. (Panasonic—MR-154-PE) • 3 mL pipettes • An analytical balance (OHAUS Adventurer Pro AV264C) • A watch glass • A spatula • A tensiometer, brand name K100, sold by KRÜSS GmbH, Borsteler Chaussee 85, 22453 Hamburg, Germany. • A 70 mL crystallizing dish • A platinum blade • KRUSS laboratory software • A viscometer/densimeter SVM 3000—Anton Paar
(§2) The compositions of formulae 19 to 23 and the dispersants of the prior art are tested for surface tension in order to find the wettability thereof, by using a fine plate (called a Wilhelmy plate) connected to an analytical balance. The method of the Wilhelmy blade on the K100 is used. A 70 mL crystallizing dish filled with 30 mL of product to be tested is placed in the K100. The platinum blade is arranged over the product. The KRUSS Laboratory software determines the surface tension of the liquid, via the force felt by the blade in the liquid. The viscosity and the density are also measured.

[2] = Surface tension, Wilhelmy blade method on the K100 tensiometer
Procedure: as §1, §2

[3] = Density (viscometer/densimeter SVM 3000)
Procedure: as §1, §2

- Viscosity at 20° C. [1]: 1.7 mm^2/s
- Surface tension at 20° C. [2]: 40 mN/m
- Density at 20° C. [3]: 1.03 g/mL
Structure (SMILES): CN1CCCC1=O [NMP, N-methyl-2-pyrrolidone]
